Measured values as given in patent publication US12029725B2 (priority 2019, dated 2024).
Entries after “also recorded” stand apart in the source; their conditions may differ. Where two headings read alike, the source gives them in different places.

Experiments:
[1] = Pharmacokinetics of RTX after intra-articular injection in the Phase 1b study; assay type: in vivo, human; conditions: for Number of RTX subjects with quantifiable PK / Number of subjects with BQL of RTX: 6 subjects with PK measured; for Cmax / AUC(0-t): human, in vivo, other: intra-articular injection
[2] = system: subjects with moderate to severe osteoarthritis of the knee; conditions: for Procedure-associated pain (post-procedural pain and injection site pain), patients reporting: RTX patients; for Procedure-associated pain reported as mild / Procedure-associated pain reported as moderate: RTX treated patients
[3] = system: pain due to moderate to severe osteoarthritis of the knee; experiment: Phase 1b double-blind study of intra-articular resiniferatoxin versus placebo: efficacy (WOMAC and NPRS pain scores); assay type: in vivo, human; conditions: for Patient reported WOMAC A1 and NPRS pain scores: all dose levels
Experimental: The study, described as “Phase 1b double-blind study assesses safety and preliminary efficacy of intra-articular administration of resiniferatoxin versus placebo for the treatment of pain due to moderate to severe osteoarthritis of the knee,” was performed.
Subjects with moderate to severe osteoarthritis diagnosed based on ACR diagnostic criteria and X-ray imaging were enrolled in a phase 1b double-blind study to assess the safety, tolerability and preliminary efficacy of intra-articular administration of resiniferatoxin or placebo for the treatment of moderate to severe pain due to osteoarthritis of the knee. Patients met the following criteria: (1) baseline pain score in the index knee (WOMAC pain subscale question A1) of ≥5 but ≤9 during four weeks prior to enrollment; (2) mean NPRS score of ≥5 but ≤9 during 8 of 10 days prior to enrollment; and (3) pain lasted for at least 6 months prior to enrollment.
As of August 2019, the enrollment of all planned dose level cohorts was completed. 40 patients have enrolled in these dose-escalation cohorts, 30 receiving RTX and 10 receiving placebo (multicenter, randomized, double-blind, placebo controls). In each cohort, six patients received intraarticular RTX and two received a saline control (placebo arm). 69% are female and 31% are male. The median age is 62 (range 44-83), and the baseline NPRS A1 score was mean 6.5 (S.D. 1.5).
The patients were treated with a one-time intraarticular dose of resiniferatoxin (RTX) or saline placebo at escalating dose level cohorts of 5 μg, 12.5 μg, 20 μg and 30 μg in 5 or 10 mL in dose escalation cohorts. For each 8-patient cohort, the first patient was considered a sentinel patient and received open-label drug. Upon confirmation of safety in the sentinel patient, the remaining 7 patients in the cohort were enrolled in a blinded fashion, 2 patients receiving placebo and 5 patients receiving RTX. After confirmation of safety at each dose level, the next higher dose level was opened for enrollment. Patients were followed for safety and efficacy over a 12-week period. Patients had the option to provide additional follow-up to 52 weeks. Efficacy was assessed using the patient reported WOMAC pain scores and NPRS pain scores. As per protocol, the treatment assignment could be unblinded at week 12.

[4] = 30 μg, Cohort 6, 30 μg/5 or 10 ml, subject with quantifiable PK

C=C(C)[C@]12C[C@@H](C)[C@@]34O[C@](Cc5ccccc5)(O[C@@H]1[C@@H]3C=C(COC(=O)Cc1ccc(O)c(OC)c1)C[C@]1(O)C(=O)C(C)=C[C@@H]41)O2 [RTX, resiniferatoxin]
Number of RTX subjects with quantifiable PK ([1]; Cohort 1, 5 μg/5 ml): 1 | Number of subjects with BQL of RTX ([1]; Cohort 1, 5 μg/5 ml): 5 | Number of RTX subjects with quantifiable PK ([1]; Cohort 4, 12.5 μg/5 ml): 0 | Number of subjects with BQL of RTX ([1]; Cohort 4, 12.5 μg/5 ml): 6 | Number of RTX subjects with quantifiable PK ([1]; Cohort 4a, 12.5 μg/10 ml): 1 | Number of subjects with BQL of RTX ([1]; Cohort 4a, 12.5 μg/10 ml): 5 | Number of RTX subjects with quantifiable PK ([1]; Cohort 5, 20 μg/5 ml): 2 | Number of subjects with BQL of RTX ([1]; Cohort 5, 20 μg/5 ml): 4 | Number of RTX subjects with quantifiable PK ([1]; Cohort 6, 30 μg/5 or 10 ml): 1 | Number of subjects with BQL of RTX ([1]; Cohort 6, 30 μg/5 or 10 ml): 5 | Detectability of RTX (pharmacokinetic data) ([1]; all PK cohorts, intra-articular injection): undetectable in most patients | Cmax ([1]; 5 μg, Cohort 1, 5 μg/5 ml, subject with quantifiable PK): 0.121 ng/mL | AUC(0-t) ([1]; 5 μg, Cohort 1, 5 μg/5 ml, subject with quantifiable PK, read-out: AUC (0-6 hr)): 0.509 ng·h/mL | Cmax ([1]; 12.5 μg, Cohort 4a, 12.5 μg/10 ml, subject with quantifiable PK): 0.103 ng/mL | AUC(0-t) ([1]; 12.5 μg, Cohort 4a, 12.5 μg/10 ml, subject with quantifiable PK, read-out: AUC (0-6 hr)): 0.146 ng·h/mL | Cmax ([1]; 20 μg, Cohort 5, 20 μg/5 ml, first subject with quantifiable PK): 0.071 ng/mL | AUC(0-t) [1, 4]: 0.0854 ng·h/mL | Cmax [1, 4]: 0.0878 ng/mL | DMC assessment ([2]; Cohort 1, 5 μg): No DLTs | Notable AE's ([2]; Cohort 1, 5 μg): None | DMC assessment ([2]; Cohort 2, 12.5 μg): No DLTs | Notable AE's ([2]; Cohort 2, 12.5 μg): None | DMC assessment ([2]; Cohort 3, 12.5 μg (in 10 ml)): No DLTs | Notable AE's ([2]; Cohort 3, 12.5 μg (in 10 ml)): None | DMC assessment ([2]; Cohort 4, 20 μg): No DLTs | Notable AE's ([2]; Cohort 4, 20 μg): None | DMC assessment ([2]; Cohort 5, 30 μg): No DLTs | Notable AE's ([2]; Cohort 5, 30 μg): None | TEAE Areflexia, Mild: frequency ([2]; RTX All Cohorts (N = 57)): (3.5%) | TEAE Areflexia, Mild: number of subjects ([2]; RTX All Cohorts (N = 57)): 2 | TEAE Areflexia, Moderate: frequency ([2]; RTX All Cohorts (N = 57)): (3.5%) | TEAE Areflexia, Moderate: number of subjects ([2]; RTX All Cohorts (N = 57)): 2 | TEAE Arthralgia, Mild: frequency ([2]; RTX All Cohorts (N = 57)): (7.0%) | TEAE Arthralgia, Mild: number of subjects ([2]; RTX All Cohorts (N = 57)): 4 | TEAE Arthralgia, Moderate: frequency ([2]; RTX All Cohorts (N = 57)): (1.8%) | TEAE Arthralgia, Moderate: number of subjects ([2]; RTX All Cohorts (N = 57)): 1 | TEAE EOG QTc prolonged, Mild: frequency ([2]; RTX All Cohorts (N = 57)): (5.3%) | TEAE EOG QTc prolonged, Mild: number of subjects ([2]; RTX All Cohorts (N = 57)): 3 | TEAE Headache, Mild: frequency ([2]; RTX All Cohorts (N = 57)): (5.3%) | TEAE Headache, Mild: number of subjects ([2]; RTX All Cohorts (N = 57)): 3 | TEAE Hypertension, Mild: frequency ([2]; RTX All Cohorts (N = 57)): (7.0%) | TEAE Hypertension, Mild: number of subjects ([2]; RTX All Cohorts (N = 57)): 4 | TEAE Hypertension, Moderate: frequency ([2]; RTX All Cohorts (N = 57)): (7.0%) | TEAE Hypertension, Moderate: number of subjects ([2]; RTX All Cohorts (N = 57)): 4 | TEAE Hypoesthesia, Mild: frequency ([2]; RTX All Cohorts (N = 57)): (8.8%) | TEAE Hypoesthesia, Mild: number of subjects ([2]; RTX All Cohorts (N = 57)): 5 | TEAE Nausea, Mild: frequency ([2]; RTX All Cohorts (N = 57)): (31.6%) | TEAE Nausea, Mild: number of subjects ([2]; RTX All Cohorts (N = 57)): 18 | TEAE Nausea, Moderate: frequency ([2]; RTX All Cohorts (N = 57)): (3.5%) | TEAE Nausea, Moderate: number of subjects ([2]; RTX All Cohorts (N = 57)): 2 | TEAE Procedural pain, Mild: frequency ([2]; RTX All Cohorts (N = 57)): (64.9%) | TEAE Procedural pain, Mild: number of subjects ([2]; RTX All Cohorts (N = 57)): 37 | TEAE Procedural pain, Moderate: frequency ([2]; RTX All Cohorts (N = 57)): (26.3%) | TEAE Procedural pain, Moderate: number of subjects ([2]; RTX All Cohorts (N = 57)): 15 | TEAE Vomiting, Mild: frequency ([2]; RTX All Cohorts (N = 57)): (14.0%) | TEAE Vomiting, Mild: number of subjects ([2]; RTX All Cohorts (N = 57)): 8 | TEAE Vomiting, Moderate: frequency ([2]; RTX All Cohorts (N = 57)): (3.5%) | TEAE Vomiting, Moderate: number of subjects ([2]; RTX All Cohorts (N = 57)): 2 | Dose-limiting toxicities ([2]; all cohorts): No dose-limiting toxicities | Maximum tolerated dose ([2]; all cohorts): not identified | Relationship between adverse events and dose ([2]; all cohorts): no apparent relationship | Procedure-associated pain (post-procedural pain and injection site pain), patients reporting ([2]; all cohorts): 91% | Procedure-associated pain reported as mild ([2]; all cohorts): 65% | Procedure-associated pain reported as moderate ([2]; all cohorts): 26% | Dose-limiting toxicities ([2]; dose escalation cohorts (N=40)): No dose-limiting toxicities | Maximum tolerated dose ([2]; dose escalation cohorts (N=40)): not identified | Relationship between adverse events and dose ([2]; dose escalation cohorts (N=40)): no apparent relationship | Procedure-associated pain (post-procedural pain and injection site pain), patients reporting ([2]; dose escalation cohorts (N=40)): 100% | Procedure-associated pain reported as mild ([2]; dose escalation cohorts (N=40)): 55% | Procedure-associated pain reported as moderate ([2]; dose escalation cohorts (N=40)): 45% | Adverse events of interest ([2]; initial results, any dose group): nor adverse events of interest noted | Dose limiting toxicities (DLTs) ([2]; initial results, any dose group, to date): No dose limiting toxicities | Pain at walking (10 point WOMAC pain scale), mean pain score lower versus control ([3]; 5 μg RTX, Day 84): 4.7 points | WOMAC A-C pain index, least squares mean difference versus placebo (MMRM) ([3]; 12.5 μg dose, 12 weeks, p=0.016, N=6): −14.20 | WOMAC A1 score, least squares mean difference versus placebo (MMRM) ([3]; 12.5 μg dose, 12 weeks, p=0.029, N=6): −2.70 | NPRS score, least squares mean difference versus placebo (MMRM) ([3]; 12.5 μg dose, 12 weeks, p=0.051, N=6): −2.29 | Weekly average NPRS pain score, mean change (standard deviation) from baseline to week 12 ([3]; Cohort 4, 12.5 μg/5 ml, FIG. 2): −5.30 (1.94) | Weekly average WOMAC question A1, mean change (standard deviation) from baseline to week 12 ([3]; Cohort 4, 12.5 μg/5 ml, FIG. 3): −5.67 (1.51) | Patient reported WOMAC A1 and NPRS pain scores ([3]; all cohorts incl. volume and dose expansion cohorts): reduction | Improvements in patients of all dose groups ([3]; all dose groups, ongoing trial): rapid and sustainable improvements | Patient reported WOMAC A1 and NPRS pain scores ([3]; dose escalation cohorts (N=40), available unblinded data): reduction | Sustained clinical benefits / pain reduction sustained over time ([3]; lowest dose (5 μg), determined at 84 days): sustained clinical benefits; also recorded: sustained over time | Onset of pain relief ([3]; lowest dose tested, single 5 μg RTX injection into the knee joint): day following injection; also recorded: the day following drug administration | Patients reporting positive clinical benefits in pain reduction ([3]; patients treated with the active drug, to date): a majority | Patients achieving >70% reduction in pain versus baseline, NPRS score ([3]; pooled RTX-treated patients): 41% | Patients achieving >70% reduction in pain versus baseline, WOMAC A1 score ([3]; pooled RTX-treated patients): 54% | Weekly average NPRS pain score, change from baseline to week 12, difference versus pooled placebo ([3]; week 12, range over dose level cohorts): −0.34 to −2.29 | WOMAC question A1 (pain on walking on flat surface), least squares mean difference in change from baseline relative to placebo ([3]; week 12, range over dose level cohorts, 9 placebo, 28 RTX): −0.38 to −2.70 points
